# Data reported in PubChem BioAssay (NCI).
#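 All cell lines were grown in 96-well plates and treated with compound for 48 hours. GI50 is the concentration that inhibits growth by half. TGI marks complete inhibition of growth.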
# Experiments:
# Test in all cases: NCI anticancer screen, dose series, 48 h
# A498 renal = test system: A498 renal
# EKVX NSCLC = test system: EKVX NSCLC
# HT29 colon = test system: HT29 colon
# M14 melanoma = test system: M14 melanoma
# MALME-3M melanoma = test system: MALME-3M melanoma
# NCI-H226 lung = test system: NCI-H226 lung
# OVCAR-4 ovarian = test system: OVCAR-4 ovarian
# SF-268 CNS = test system: SF-268 CNS
# SNB-19 CNS = test system: SNB-19 CNS
# MDA-MB-435 = test system: MDA-MB-435
compound,measurement,setting,value
Cc1cccc2c1N(C(=O)/C=C\C(=O)O)C(c1c(C)[nH]c3ccccc13)C2 (centres undefined),TGI,A498 renal,> 100 µM
same,TGI,EKVX NSCLC,> 100 µM
same,TGI,HT29 colon,> 100 µM
same,TGI,M14 melanoma,> 100 µM
same,TGI,MALME-3M melanoma,48.1 µM
same,TGI,NCI-H226 lung,> 100 µM
same,TGI,OVCAR-4 ovarian,> 100 µM
same,TGI,SF-268 CNS,> 10 µM
same,TGI,SNB-19 CNS,> 100 µM
Cc1cc2c(cc1C)[n+](=O)c(C(=O)C/C(=N/OCCCc1ccccc1)C(=O)Nc1cc(Cl)ccc1Cl)c(C)n2[O-],TGI,A498 renal,> 100 µM
same,TGI,EKVX NSCLC,> 100 µM
same,TGI,HT29 colon,> 100 µM
same,TGI,M14 melanoma,> 100 µM
same,TGI,MALME-3M melanoma,> 100 µM
same,TGI,NCI-H226 lung,> 100 µM
same,TGI,OVCAR-4 ovarian,> 100 µM
same,TGI,SF-268 CNS,> 100 µM
same,TGI,SNB-19 CNS,> 100 µM
O=C(c1ccccc1)c1ccc(Oc2ccc([N+](=O)[O-])cc2[N+](=O)[O-])cc1,GI50,A498 renal,11 µM
same,TGI,A498 renal,24.8 µM
same,GI50,EKVX NSCLC,13.2 µM
same,TGI,EKVX NSCLC,38.4 µM
same,GI50,HT29 colon,4.08 µM
same,TGI,HT29 colon,20.8 µM
same,GI50,M14 melanoma,3.09 µM
same,TGI,M14 melanoma,31.6 µM
same,GI50,MDA-MB-435,1.82 µM
same,TGI,MDA-MB-435,3.98 µM
same,GI50,NCI-H226 lung,2.52 µM
same,TGI,NCI-H226 lung,8.57 µM
same,GI50,OVCAR-4 ovarian,4.18 µM
same,TGI,OVCAR-4 ovarian,87.4 µM
same,GI50,SF-268 CNS,3.3 µM
same,TGI,SF-268 CNS,11.9 µM
same,GI50,SNB-19 CNS,7.74 µM
same,TGI,SNB-19 CNS,34.2 µM
COC(=O)C(C(=O)C(=O)Nc1nc(=S)[nH][nH]1)c1csc(-n2nc(-c3ccccc3)cc2-c2ccccc2)n1 (centres undefined),TGI,A498 renal,> 100 µM
same,TGI,EKVX NSCLC,> 100 µM
same,TGI,HT29 colon,> 100 µM
same,TGI,M14 melanoma,> 100 µM
same,TGI,MALME-3M melanoma,> 100 µM
same,TGI,NCI-H226 lung,> 100 µM
same,TGI,OVCAR-4 ovarian,> 100 µM
same,TGI,SF-268 CNS,> 100 µM
same,TGI,SNB-19 CNS,> 100 µM
O=[N+]([O-])c1ccccc1N/N=C\c1c[nH]c2ccccc12,GI50,EKVX NSCLC,2.49 µM
same,TGI,EKVX NSCLC,> 100 µM
same,GI50,HT29 colon,16.8 µM
same,TGI,HT29 colon,> 61.7 µM
same,GI50,M14 melanoma,34.7 µM
same,TGI,M14 melanoma,> 100 µM
same,GI50,MALME-3M melanoma,28.8 µM
same,TGI,MALME-3M melanoma,> 87.1 µM
same,GI50,MDA-MB-435,> 100 µM
same,TGI,MDA-MB-435,> 100 µM
same,GI50,NCI-H226 lung,12.6 µM
same,TGI,NCI-H226 lung,> 100 µM
same,GI50,OVCAR-4 ovarian,17.8 µM
same,TGI,OVCAR-4 ovarian,> 100 µM
same,GI50,SF-268 CNS,9.04 µM
same,TGI,SF-268 CNS,> 100 µM
same,GI50,SNB-19 CNS,24.9 µM
same,TGI,SNB-19 CNS,> 100 µM
O=C1c2nsnc2C(=O)c2c(F)c(F)c(F)c(F)c21,GI50,A498 renal,1.6 µM
same,TGI,A498 renal,3.57 µM
same,GI50,HT29 colon,0.266 µM
same,TGI,HT29 colon,0.715 µM
same,GI50,M14 melanoma,0.249 µM
same,TGI,M14 melanoma,0.629 µM
same,GI50,MDA-MB-435,0.846 µM
same,TGI,MDA-MB-435,2.14 µM
same,GI50,NCI-H226 lung,1.93 µM
same,TGI,NCI-H226 lung,4.58 µM
same,GI50,SF-268 CNS,1.6 µM
same,TGI,SF-268 CNS,3.17 µM
same,GI50,SNB-19 CNS,1.2 µM
same,TGI,SNB-19 CNS,2.56 µM
NC(N)=N/N=C/c1c(-c2cc(Cl)sc2Cl)nc2sccn12,GI50,A498 renal,1.54 µM
same,TGI,A498 renal,10.2 µM
same,GI50,EKVX NSCLC,3.72 µM
same,TGI,EKVX NSCLC,13.1 µM
same,GI50,M14 melanoma,> 50 µM
same,TGI,M14 melanoma,> 50 µM
same,GI50,MDA-MB-435,4.03 µM
same,TGI,MDA-MB-435,15.1 µM
same,GI50,NCI-H226 lung,7.89 µM
same,TGI,NCI-H226 lung,18.9 µM
same,GI50,SF-268 CNS,1.26 µM
same,TGI,SF-268 CNS,3.9 µM
CC(=O)Nc1cc(N(CCOS(C)(=O)=O)CCOS(C)(=O)=O)ccc1N=O,TGI,HT29 colon,> 100 µM
same,TGI,M14 melanoma,> 100 µM
same,TGI,MALME-3M melanoma,> 100 µM
same,TGI,NCI-H226 lung,> 100 µM
same,TGI,OVCAR-4 ovarian,> 100 µM
same,TGI,SF-268 CNS,> 100 µM
same,TGI,SNB-19 CNS,> 100 µM
O=C(O)C[C@H]1CCCCC12CCOC2=O (some centres undefined),TGI,EKVX NSCLC,> 100 µM
same,TGI,HT29 colon,> 100 µM
same,TGI,M14 melanoma,> 100 µM
same,TGI,NCI-H226 lung,> 100 µM
same,TGI,OVCAR-4 ovarian,> 100 µM
same,TGI,SF-268 CNS,> 100 µM
same,TGI,SNB-19 CNS,> 100 µM
Cc1ccc(NC(=O)C(=O)C(C#N)c2nc(-c3ccc(-c4ccccc4)cc3)cs2)c(C)c1 (centres undefined),TGI,A498 renal,> 100 µM
same,TGI,EKVX NSCLC,> 100 µM
same,TGI,HT29 colon,> 1 µM
same,TGI,M14 melanoma,> 100 µM
same,TGI,MALME-3M melanoma,> 100 µM
same,TGI,NCI-H226 lung,> 100 µM
same,TGI,OVCAR-4 ovarian,> 100 µM
same,TGI,SF-268 CNS,> 100 µM
same,TGI,SNB-19 CNS,> 100 µM
O=C(c1ccccc1)[C@H]1Nc2ccc(Cl)cc2C2c3ccccc3CC21 (some centres undefined),TGI,HT29 colon,> 100 µM
same,TGI,M14 melanoma,> 100 µM
same,TGI,NCI-H226 lung,> 100 µM
same,TGI,OVCAR-4 ovarian,50.9 µM
same,TGI,SF-268 CNS,> 100 µM
same,TGI,SNB-19 CNS,> 100 µM
O=C(c1ccccc1)N1C2CCC1C(C(F)(F)F)=C2C(F)(F)F,TGI,A498 renal,> 100 µM
same,TGI,EKVX NSCLC,> 100 µM
same,TGI,HT29 colon,> 100 µM
same,TGI,M14 melanoma,> 100 µM
same,TGI,MALME-3M melanoma,> 100 µM
same,TGI,NCI-H226 lung,> 100 µM
same,TGI,OVCAR-4 ovarian,> 100 µM
same,TGI,SF-268 CNS,> 100 µM
same,TGI,SNB-19 CNS,> 100 µM
CNCc1cc(OC)ccc1-c1ccc(OC)c(OC)c1OC,TGI,A498 renal,> 100 µM
same,TGI,EKVX NSCLC,> 100 µM
same,TGI,HT29 colon,> 100 µM
same,TGI,M14 melanoma,> 100 µM
same,TGI,MALME-3M melanoma,> 100 µM
same,TGI,NCI-H226 lung,> 100 µM
same,TGI,OVCAR-4 ovarian,> 100 µM
same,TGI,SF-268 CNS,> 100 µM
same,TGI,SNB-19 CNS,> 100 µM
CCN1C(=O)N(CC)C2Nn3c(s/c(=C\c4ccccc4Br)c3=O)=NC21 (centres undefined),GI50,A498 renal,0.886 µM
same,TGI,A498 renal,4.08 µM
same,GI50,EKVX NSCLC,2.3 µM
same,TGI,EKVX NSCLC,> 100 µM
same,GI50,HT29 colon,0.558 µM
same,TGI,HT29 colon,5.73 µM
same,GI50,MALME-3M melanoma,8.08 µM
same,TGI,MALME-3M melanoma,78.1 µM
same,GI50,NCI-H226 lung,6.31 µM
same,TGI,NCI-H226 lung,> 100 µM
same,GI50,OVCAR-4 ovarian,2.29 µM
same,TGI,OVCAR-4 ovarian,> 100 µM
same,GI50,SF-268 CNS,2.54 µM
same,TGI,SF-268 CNS,29 µM
same,GI50,SNB-19 CNS,3.18 µM
same,TGI,SNB-19 CNS,> 100 µM
COC(=O)C(CC(C)C)NC(=O)NC12CC3CC(CC(F)(C3)C1)C2 (centres undefined),TGI,A498 renal,> 100 µM
same,TGI,EKVX NSCLC,> 100 µM
same,TGI,HT29 colon,> 100 µM
same,TGI,M14 melanoma,> 100 µM
same,TGI,MALME-3M melanoma,> 100 µM
same,TGI,SNB-19 CNS,> 100 µM
O=C(CN(/C=C/C(=O)C(F)(F)F)c1ccc(Cl)cc1)c1ccccc1,GI50,A498 renal,22 µM
same,TGI,A498 renal,43.1 µM
same,GI50,EKVX NSCLC,15.1 µM
same,TGI,EKVX NSCLC,34.1 µM
same,GI50,HT29 colon,25.8 µM
same,TGI,HT29 colon,> 100 µM
same,GI50,M14 melanoma,10.6 µM
same,TGI,M14 melanoma,22.9 µM
same,GI50,MDA-MB-435,10.8 µM
same,TGI,MDA-MB-435,39 µM
same,GI50,SF-268 CNS,> 100 µM
same,TGI,SF-268 CNS,> 100 µM
same,GI50,SNB-19 CNS,33 µM
same,TGI,SNB-19 CNS,> 100 µM
O=C1NC(=O)C(=C/C=C/c2ccccc2)C(=O)N1,GI50,A498 renal,20 µM
same,TGI,A498 renal,34.6 µM
same,GI50,M14 melanoma,2.04 µM
same,TGI,M14 melanoma,4.73 µM
same,GI50,NCI-H226 lung,2.81 µM
same,TGI,NCI-H226 lung,7.25 µM
same,GI50,OVCAR-4 ovarian,5.37 µM
same,TGI,OVCAR-4 ovarian,17.2 µM
same,GI50,SF-268 CNS,3.2 µM
same,TGI,SF-268 CNS,10.3 µM
same,GI50,SNB-19 CNS,5.14 µM
same,TGI,SNB-19 CNS,24.7 µM
CC(/C(=N\Nc1ccccc1)c1ccc(O)cc1)C1C(=O)Oc2ccccc21 (centres undefined),TGI,A498 renal,> 100 µM
same,TGI,EKVX NSCLC,> 100 µM
same,TGI,HT29 colon,> 100 µM
same,TGI,M14 melanoma,> 100 µM
same,TGI,MALME-3M melanoma,> 100 µM
same,TGI,OVCAR-4 ovarian,> 100 µM
same,TGI,SNB-19 CNS,> 100 µM
COC(=O)/C(=N\Nc1nc(=S)[nH]n1N)C(C#N)c1ccccc1 (centres undefined),TGI,A498 renal,> 100 µM
same,TGI,EKVX NSCLC,> 100 µM
same,TGI,HT29 colon,> 100 µM
same,TGI,M14 melanoma,> 100 µM
same,TGI,MALME-3M melanoma,> 100 µM
same,TGI,NCI-H226 lung,> 100 µM
same,TGI,OVCAR-4 ovarian,> 100 µM
same,TGI,SF-268 CNS,> 100 µM
same,TGI,SNB-19 CNS,> 100 µM
COC(=O)C(Cc1cc(OC)c(OC)c(OC)c1)c1ccc(OC)cc1 (centres undefined),TGI,A498 renal,> 100 µM
same,TGI,EKVX NSCLC,> 100 µM
same,TGI,HT29 colon,> 100 µM
same,TGI,M14 melanoma,> 100 µM
same,TGI,MALME-3M melanoma,> 100 µM
same,TGI,NCI-H226 lung,> 100 µM
same,TGI,OVCAR-4 ovarian,> 100 µM
same,TGI,SF-268 CNS,> 100 µM
same,TGI,SNB-19 CNS,> 100 µM
